Results as given in article PMC12373846, “Hemoglobin as a pseudoperoxidase and drug target for oxidative stress-related diseases” (Signal Transduction and Targeted Therapy, 2025).
Where “and” joins values, the source holds several entries; their conditions need not be identical. Identical values can stand only once. Like-named read-outs stand apart in the source and are kept apart here.

Assays:
[1] = test system: 97 kinases; experiment: KINOMEscan scanEDGE selectivity score; assay type: binding, human; conditions: 10000 nM
Method: (§1) The possibility of KDS12025 on kinase off-target, the KINOMEscan panel of scanEDGE assay was conducted in DiscoverX (CA, USA) using a site-directed competition binding with the test compounds. The assay results are given in Supplementary Table 4 and experimental information is available on the DiscoverX web page (www.discoverx.com). Moreover, the Delta SafetyScreen87 panel assay was conducted in Eurofins Discovery (Cerep, France). The assay results are given in Supplementary Table 5 and experimental information is available on the DiscoverX web page (https://www.eurofinsdiscoveryservices.com).

[2] = target: T1, MAO-B (h) recombinant enzyme (Homo sapiens, UniProt P27338); experiment: SafetyScreen87 panel; assay type: biochemical; conditions: 1.00E-06, read-out: % Inhibition of Control Specific Binding (1st, 2nd, Mean)
T1 construct: purchased Eurofins Discovery (Cerep, France)
Method: as §1

[3] = target: T2, cathepsin G (h) (Homo sapiens, UniProt P08311); experiment: SafetyScreen87 panel; assay type: biochemical; conditions: 1.00E-06, read-out: % Inhibition of Control Specific Binding (1st, 2nd, Mean)
T2 construct: purchased Eurofins Discovery (Cerep, France)
T2 sequence (P08311 21-255): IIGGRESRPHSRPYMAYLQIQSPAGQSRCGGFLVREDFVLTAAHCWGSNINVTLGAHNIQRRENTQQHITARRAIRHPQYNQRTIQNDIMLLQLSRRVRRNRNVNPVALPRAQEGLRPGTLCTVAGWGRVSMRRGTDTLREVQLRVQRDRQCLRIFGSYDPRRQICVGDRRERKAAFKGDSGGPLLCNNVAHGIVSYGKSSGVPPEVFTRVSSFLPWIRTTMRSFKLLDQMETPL
Method: as §1

[4] = test system: ATPase (Na+/K+); experiment: SafetyScreen87 panel; assay type: biochemical; conditions: 1.00E-06; read-out: % Inhibition of Control Specific Binding (1st, 2nd, Mean)
Method: as §1

[5] = target: T3, PKCalpha (h) (Homo sapiens, UniProt P17252); experiment: SafetyScreen87 panel; assay type: biochemical; conditions: 1.00E-06, read-out: % Inhibition of Control Specific Binding (1st, 2nd, Mean)
T3 construct: purchased Eurofins Discovery (Cerep, France)
Method: as §1

[6] = target: T4, IRK (h) (InsR) (Homo sapiens, UniProt P06213); experiment: SafetyScreen87 panel; assay type: biochemical
T4 construct: purchased Eurofins Discovery (Cerep, France)
Method: as §1

[7] = target: T5, PDE4D2 (h) (Homo sapiens, UniProt Q08499); experiment: SafetyScreen87 panel; assay type: biochemical
T5 construct: purchased Eurofins Discovery (Cerep, France)
Method: as §1

[8] = target: T6, Lck kinase (h) (Homo sapiens, UniProt P06239); experiment: SafetyScreen87 panel; assay type: biochemical; conditions: 1.00E-06, read-out: % Inhibition of Control Specific Binding (1st, 2nd, Mean)
T6 construct: purchased Eurofins Discovery (Cerep, France)
T6 sequence (P06239 whole entry): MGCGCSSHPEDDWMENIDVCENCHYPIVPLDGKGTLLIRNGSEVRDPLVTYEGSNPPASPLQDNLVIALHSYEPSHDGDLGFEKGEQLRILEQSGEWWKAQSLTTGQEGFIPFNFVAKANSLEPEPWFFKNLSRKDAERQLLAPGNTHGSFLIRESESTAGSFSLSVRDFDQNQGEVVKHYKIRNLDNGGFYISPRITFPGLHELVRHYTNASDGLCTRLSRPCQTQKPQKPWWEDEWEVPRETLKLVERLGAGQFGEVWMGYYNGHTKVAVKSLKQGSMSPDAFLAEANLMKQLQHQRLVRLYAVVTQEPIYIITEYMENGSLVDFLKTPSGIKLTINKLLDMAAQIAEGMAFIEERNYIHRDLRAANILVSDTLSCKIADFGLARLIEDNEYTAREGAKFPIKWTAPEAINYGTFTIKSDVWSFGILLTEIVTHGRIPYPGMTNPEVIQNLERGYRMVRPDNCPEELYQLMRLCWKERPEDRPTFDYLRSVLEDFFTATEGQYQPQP
Method: as §1

[9] = target: T7, COX2(h) (Homo sapiens, UniProt P35354); experiment: SafetyScreen87 panel; assay type: biochemical; conditions: 1.00E-06, read-out: % Inhibition of Control Specific Binding (1st, 2nd, Mean)
T7 construct: purchased Eurofins Discovery (Cerep, France)
T7 sequence (P35354 18-604): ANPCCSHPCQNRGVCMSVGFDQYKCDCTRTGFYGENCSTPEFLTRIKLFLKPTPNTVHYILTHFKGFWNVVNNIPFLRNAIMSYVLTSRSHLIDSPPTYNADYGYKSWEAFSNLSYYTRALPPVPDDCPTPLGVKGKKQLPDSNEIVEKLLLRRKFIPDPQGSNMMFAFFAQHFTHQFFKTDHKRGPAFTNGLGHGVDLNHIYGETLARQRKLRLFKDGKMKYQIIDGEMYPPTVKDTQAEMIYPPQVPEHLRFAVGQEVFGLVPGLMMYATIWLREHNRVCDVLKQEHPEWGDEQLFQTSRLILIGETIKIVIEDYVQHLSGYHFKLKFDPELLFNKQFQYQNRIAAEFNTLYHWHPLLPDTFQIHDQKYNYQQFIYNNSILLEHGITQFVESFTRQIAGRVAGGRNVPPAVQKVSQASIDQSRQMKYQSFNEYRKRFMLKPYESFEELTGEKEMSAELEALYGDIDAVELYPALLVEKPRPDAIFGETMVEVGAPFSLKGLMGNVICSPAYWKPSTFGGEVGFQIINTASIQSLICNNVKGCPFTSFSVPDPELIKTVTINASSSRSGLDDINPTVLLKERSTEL
Method: as §1

[10] = target: T8, acetylcholinesterase (h) (Homo sapiens, UniProt P22303); experiment: SafetyScreen87 panel; assay type: biochemical; conditions: 1.00E-06, read-out: % Inhibition of Control Specific Binding (1st, 2nd, Mean)
T8 construct: purchased Eurofins Discovery (Cerep, France)
T8 sequence (P22303 32-614): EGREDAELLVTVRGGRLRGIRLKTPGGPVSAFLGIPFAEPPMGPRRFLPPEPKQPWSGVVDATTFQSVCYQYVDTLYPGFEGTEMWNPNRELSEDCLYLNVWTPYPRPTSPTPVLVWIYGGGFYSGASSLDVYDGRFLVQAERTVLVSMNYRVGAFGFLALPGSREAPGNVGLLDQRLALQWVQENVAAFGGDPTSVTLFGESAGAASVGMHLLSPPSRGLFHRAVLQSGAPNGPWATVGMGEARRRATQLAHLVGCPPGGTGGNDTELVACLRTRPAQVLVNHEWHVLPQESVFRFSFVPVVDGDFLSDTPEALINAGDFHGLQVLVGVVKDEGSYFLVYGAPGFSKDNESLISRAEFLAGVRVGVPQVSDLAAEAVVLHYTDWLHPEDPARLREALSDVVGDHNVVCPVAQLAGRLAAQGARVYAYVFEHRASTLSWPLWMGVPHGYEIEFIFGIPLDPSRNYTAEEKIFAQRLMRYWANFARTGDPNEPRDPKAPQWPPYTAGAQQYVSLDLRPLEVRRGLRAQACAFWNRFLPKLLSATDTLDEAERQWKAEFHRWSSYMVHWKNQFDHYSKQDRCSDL
Method: as §1

[11] = target: T9, ACE (h) (Homo sapiens, UniProt P12821); experiment: SafetyScreen87 panel; assay type: biochemical; conditions: 1.00E-06, read-out: % Inhibition of Control Specific Binding (1st, 2nd, Mean)
T9 construct: purchased Eurofins Discovery (Cerep, France)
T9 sequence (P12821 30-1306): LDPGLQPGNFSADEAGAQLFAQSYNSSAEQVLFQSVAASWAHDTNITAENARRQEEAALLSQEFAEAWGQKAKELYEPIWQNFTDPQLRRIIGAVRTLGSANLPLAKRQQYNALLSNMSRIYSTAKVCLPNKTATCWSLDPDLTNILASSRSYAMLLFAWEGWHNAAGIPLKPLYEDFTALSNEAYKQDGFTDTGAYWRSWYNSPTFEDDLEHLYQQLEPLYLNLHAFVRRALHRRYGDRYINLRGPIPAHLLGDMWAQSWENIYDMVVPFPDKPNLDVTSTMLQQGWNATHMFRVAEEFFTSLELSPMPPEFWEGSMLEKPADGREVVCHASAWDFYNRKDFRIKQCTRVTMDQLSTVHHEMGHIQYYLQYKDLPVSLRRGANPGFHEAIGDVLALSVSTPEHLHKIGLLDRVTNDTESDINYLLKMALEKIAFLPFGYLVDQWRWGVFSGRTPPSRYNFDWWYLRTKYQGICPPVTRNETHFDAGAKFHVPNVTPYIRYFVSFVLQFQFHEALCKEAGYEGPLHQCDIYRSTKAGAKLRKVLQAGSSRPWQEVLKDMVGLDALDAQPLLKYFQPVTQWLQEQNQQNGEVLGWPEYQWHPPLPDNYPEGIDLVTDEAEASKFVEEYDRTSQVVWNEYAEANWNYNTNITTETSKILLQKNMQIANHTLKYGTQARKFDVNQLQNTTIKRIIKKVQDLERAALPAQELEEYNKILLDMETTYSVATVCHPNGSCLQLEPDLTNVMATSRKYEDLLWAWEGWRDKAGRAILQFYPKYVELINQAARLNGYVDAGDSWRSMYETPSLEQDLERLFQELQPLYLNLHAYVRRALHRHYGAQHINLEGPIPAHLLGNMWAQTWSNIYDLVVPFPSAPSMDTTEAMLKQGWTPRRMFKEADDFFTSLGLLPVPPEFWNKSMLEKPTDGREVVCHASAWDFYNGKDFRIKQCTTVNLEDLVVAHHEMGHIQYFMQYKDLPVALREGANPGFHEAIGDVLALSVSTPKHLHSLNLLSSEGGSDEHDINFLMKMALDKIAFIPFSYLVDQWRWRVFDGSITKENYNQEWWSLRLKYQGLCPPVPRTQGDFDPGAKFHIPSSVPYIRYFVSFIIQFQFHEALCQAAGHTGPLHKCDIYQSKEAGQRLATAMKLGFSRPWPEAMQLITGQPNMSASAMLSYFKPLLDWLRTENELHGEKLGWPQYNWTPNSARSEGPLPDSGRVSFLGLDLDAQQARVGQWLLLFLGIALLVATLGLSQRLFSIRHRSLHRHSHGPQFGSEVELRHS
Method: as §1

[12] = target: T10, PDE3A (h) (Homo sapiens, UniProt Q14432); experiment: SafetyScreen87 panel; assay type: biochemical
T10 construct: purchased Eurofins Discovery (Cerep, France)
T10 sequence (Q14432 whole entry): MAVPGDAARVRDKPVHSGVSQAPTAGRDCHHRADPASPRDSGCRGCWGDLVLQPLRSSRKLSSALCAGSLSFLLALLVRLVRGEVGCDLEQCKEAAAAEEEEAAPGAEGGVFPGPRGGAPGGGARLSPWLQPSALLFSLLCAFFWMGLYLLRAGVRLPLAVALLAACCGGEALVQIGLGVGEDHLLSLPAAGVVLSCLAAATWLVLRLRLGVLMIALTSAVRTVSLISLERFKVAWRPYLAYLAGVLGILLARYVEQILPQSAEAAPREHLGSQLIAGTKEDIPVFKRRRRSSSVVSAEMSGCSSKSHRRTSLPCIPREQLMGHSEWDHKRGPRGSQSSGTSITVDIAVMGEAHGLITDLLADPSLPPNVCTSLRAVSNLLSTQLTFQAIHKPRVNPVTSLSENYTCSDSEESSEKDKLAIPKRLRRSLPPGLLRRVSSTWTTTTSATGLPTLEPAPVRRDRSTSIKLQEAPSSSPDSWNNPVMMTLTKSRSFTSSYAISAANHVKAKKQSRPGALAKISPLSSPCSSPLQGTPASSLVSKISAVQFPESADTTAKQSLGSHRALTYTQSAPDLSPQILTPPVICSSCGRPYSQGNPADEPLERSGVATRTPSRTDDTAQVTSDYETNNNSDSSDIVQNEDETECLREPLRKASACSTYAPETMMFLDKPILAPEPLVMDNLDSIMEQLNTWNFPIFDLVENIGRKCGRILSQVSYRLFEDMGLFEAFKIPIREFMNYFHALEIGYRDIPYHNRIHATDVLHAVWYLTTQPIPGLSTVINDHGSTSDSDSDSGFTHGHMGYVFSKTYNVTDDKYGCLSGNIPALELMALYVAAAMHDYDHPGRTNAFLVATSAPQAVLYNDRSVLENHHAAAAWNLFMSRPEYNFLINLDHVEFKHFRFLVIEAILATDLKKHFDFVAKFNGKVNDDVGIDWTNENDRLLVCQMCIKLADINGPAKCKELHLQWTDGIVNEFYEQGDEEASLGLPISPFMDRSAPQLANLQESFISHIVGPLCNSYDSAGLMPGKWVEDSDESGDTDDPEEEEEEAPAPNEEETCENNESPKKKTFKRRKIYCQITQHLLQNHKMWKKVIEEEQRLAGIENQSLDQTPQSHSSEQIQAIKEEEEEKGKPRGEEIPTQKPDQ
Method: as §1

[13] = target: T11, COX1(h) (Homo sapiens, UniProt P23219); experiment: SafetyScreen87 panel; assay type: biochemical; conditions: 1.00E-06, read-out: % Inhibition of Control Specific Binding (1st, 2nd, Mean)
T11 construct: Eurofins Discovery (Cerep, France) SafetyScreen87 panel
Method: as §1

[14] = 1.00E-06; read-out: % Inhibition of Control Specific Binding (1st, 2nd, Mean)
[15] = read-out: % Inhibition of Control Specific Binding (1st, 2nd, Mean); 1.00E-06

CNc1ccc(NCCc2ccccc2OC)cc1.Cl [KDS12025, N^1-(2-methoxyphenethyl)-N^4-methylbenzene-1,4-diamine hydrochloride salt] was tested, and the “Number of Hits, S(1)” value [1] was 0, the “Number of Hits, S(10)” value [1] was 0 and the “Number of Hits, S(35)” value [1] was 0. The activity ([2]; mean) was 119%, the activity [2] was 116% and 121% and the activity ([3]; mean) was 100%. The activity [3] was 97.2% and 103%, the activity [4] was 97.8% and the activity ([5]; mean) was 104%. The activity [5] was 105% and 103%, the activity [6, 14] was 109% and the activity [6, 15] was 100%. For the same molecule, the activity [7, 14] was 95.3% and 102%, the activity [7, 15] was 98.7% and the activity ([8]; mean) was 94.1%. The activity [8] was 95.9% and 92.2%, the activity ([9]; mean) was 43.8% and the activity [9] was 42.2% and 45.3%. For the same molecule, the activity ([10]; mean) was 91.7%, the activity [10] was 92.6% and 90.8% and the activity ([11]; mean) was 100%. For the same molecule, the activity [11] was 101% and 99.4%, the activity [12, 14] was 89.8% and the activity [12, 15] was 87.1% and 92.4%. The activity ([13]; mean) was 59.3% and the activity [13] was 62.5% and 56.1%.
